# Experimental data published in patent US20240197938A1, “ANTIMICROBIAL COMPOUNDS BASED ON GLUCOHEPTONIC ACIDS AND THEIR SALTS” (HARCROS CHEMICALS, INC., priority 2021, published 2024).
# How the values were obtained:
# [1] = test system: Staphylococcus epidermidis; assay: ASTM E2315-16 Time-Kill Procedure; type: cell-based; details: for Log Reduction: 30 seconds; for log reduction: 10 minutes
# Method: (§1) Select compounds were tested for antimicrobial activity using ASTM method […]-16 (Standard Guide for Assessment of Antimicrobial Activity using a Time-Kill Procedure). Six microbes were tested: Candida albicans, Staphylococcus aureus, Staphylococcus epidermidis. Escherichia coli, Salmonella abony, and Listeria monocytogenes. Four chlorhexidine salts were tested: chlorhexidine di-α-glucoheptonate (Sample G), chlorhexidine di-β73-glucoheptonate (Sample H), chlorhexidine digluconate (Sample I), and chlorhexidine diacetate (Sample P). Both chlorhexidine diglucoheptonate salts were prepared at a 2:1 molar ratio of glucoheptonic acid to chlorhexidine. Dilutions of each salt were prepared using sterile water (20-30 ppm hardness), to achieve the desired wt. % concentration. Two glucoheptonic acids were evaluated for antimicrobial activity against the same six microbes as Example 13. Sample L was α-glucoheptonic acid. Sample M was β73-glucoheptonic acid. Benzalkonium salts were also tested using the same procedure as set forth in Example 13. The samples were benzalkonium chloride (C12-C16) (Sample C), benzalkonium chloride (C12-C14) (Sample D), benzalkonium chloride in combination with a stoichiometric amount of α-glucoheptonate (Sample F), and benzalkonium chloride in combination with a molar excess of α-glucoheptonate (Sample N). Sample F was prepared by mixing and extensively heating a stoichiometric quantity (1:1) of sodium α-glucoheptonate with benzalkonium chloride, typified by the C12-14 alkyl chain. Sample N was prepared by simply blending benzalkonium chloride, typified by the C12-16 chain, with a molar excess of sodium α-glucoheptonate (1.6:1). Both Samples F and N contain sodium chloride.
# Candida albicans = assay: ASTM E2315-16 Time-Kill Procedure; type: cell-based; details: for Log Reduction: 30 seconds; for log reduction: 10 minutes
# Method: as §1
# Staphylococcus aureus = assay: ASTM E2315-16 Time-Kill Procedure; type: cell-based; details: for Log Reduction: 30 seconds; for log reduction: 10 minutes
# Method: as §1
# Salmonella abony = assay: ASTM E2315-16 Time-Kill Procedure; type: cell-based; details: for Log Reduction: 30 seconds; for log reduction: 10 minutes
# Method: as §1, with “concentration.” for “concentration. Two glucoheptonic acids were evaluated for antimicrobial activity against the same six microbes as Example 13. Sample L was α-glucoheptonic acid. Sample M was β73-glucoheptonic acid.”
# Listeria monocytogenes = assay: ASTM E2315-16 Time-Kill Procedure; type: cell-based; details: for Log Reduction: 30 seconds; for log reduction: 10 minutes
# Method: as §1, with “concentration.” for “concentration. Two glucoheptonic acids were evaluated for antimicrobial activity against the same six microbes as Example 13. Sample L was α-glucoheptonic acid. Sample M was β73-glucoheptonic acid.”
# Escherichia coli = assay: ASTM E2315-16 Time-Kill Procedure; type: cell-based; details: for Log Reduction: 30 seconds; for log reduction: 10 minutes
# Method: as §1, with “concentration.” for “concentration. Two glucoheptonic acids were evaluated for antimicrobial activity against the same six microbes as Example 13. Sample L was α-glucoheptonic acid. Sample M was β73-glucoheptonic acid.”
# [2] = test system: all microbes (Candida albicans, Staphylococcus aureus, Staphylococcus epidermidis, Escherichia coli, Salmonella abony, Listeria monocytogenes); assay: ASTM E2315-16 Time-Kill Procedure, average across all microbes; type: cell-based; details: for Log Reduction, Average, all microbes: 30 seconds; for log reduction, Average, all microbes: 10 minutes
# Method: Select compounds were tested for antimicrobial activity using ASTM method […]-16 (Standard Guide for Assessment of Antimicrobial Activity using a Time-Kill Procedure). Six microbes were tested: Candida albicans, Staphylococcus aureus, Staphylococcus epidermidis. Escherichia coli, Salmonella abony, and Listeria monocytogenes. Four chlorhexidine salts were tested: chlorhexidine di-α-glucoheptonate (Sample G), chlorhexidine di-β73-glucoheptonate (Sample H), chlorhexidine digluconate (Sample I), and chlorhexidine diacetate (Sample P). Both chlorhexidine diglucoheptonate salts were prepared at a 2:1 molar ratio of glucoheptonic acid to chlorhexidine. Dilutions of each salt were prepared using sterile water (20-30 ppm hardness), to achieve the desired wt. % concentration. Samples G, H, I, and P were also tested at a concentration of 0.60 wt % active and evaluated for the average Log Reduction in microbial population at 10 minutes, across all microbes. A further test was conducted at a concentration of 1.0 wt % active and evaluated for the average Log Reduction in microbial population at 10 minutes, across all microbes. Benzalkonium salts were also tested using the same procedure as set forth in Example 13. The samples were benzalkonium chloride (C12-C16) (Sample C), benzalkonium chloride (C12-C14) (Sample D), benzalkonium chloride in combination with a stoichiometric amount of α-glucoheptonate (Sample F), and benzalkonium chloride in combination with a molar excess of α-glucoheptonate (Sample N). Sample F was prepared by mixing and extensively heating a stoichiometric quantity (1:1) of sodium α-glucoheptonate with benzalkonium chloride, typified by the C12-14 alkyl chain. Sample N was prepared by simply blending benzalkonium chloride, typified by the C12-16 chain, with a molar excess of sodium α-glucoheptonate (1.6:1). Both Samples F and N contain sodium chloride. A further antimicrobial test was conducted to determine the log reduction at 10 minutes. Samples C, D, F, and N are as defined above.
# [3] = Bubble pressure tensiometry (dynamic surface tension, calculated CMC); type: physicochemical; details: sub-CMC, CMC and super-CMC concentrations; FIGS. 1-7
# Method: Dynamic surface tensions of certain formulations were measured using a KRÜSS BP100 BPT Mobile bubble pressure tensiometer. Samples of the solution of Example 7 were tested by adding the test solution to a glass dish and lowering the disposable capillary tip and temperature probe into the solution. The dynamic setting was selected, and the instrument was set to collect 30 data points, the bubble age increasing from about 10 ms to about 30,000 ms.
# Bubble tensiometry was used to calculate the Critical Micelle Concentration (CMC) value for each of the solutions.
# FIG. 1 presents a comparison of the bubble age to surface tension for RM14A at CMC, sub-CMC, and super-CMC concentrations. FIG. 2 presents a comparison of the bubble age to surface tension for RM14B at CMC, sub-CMC, and super-CMC concentrations. FIG. 3 presents a comparison of the bubble age to surface tension for RM14C at CMC, sub-CMC, and super-CMC concentrations. FIG. 4 presents a comparison of the bubble age to surface tension for RM12A, RM13A, RM14A, and RM15A at super-CMC concentrations. FIG. 5 presents a comparison of the bubble age to surface tension for RM12A, RM13A, RM14A, and RM15A at CMC concentrations. FIG. 6 presents a comparison of the bubble age to surface tension for RM12A, RM13A, RM14A, and RM15A at CMC concentrations. FIG. 7 presents a comparison of bubble age to surface tension for RM12A, RM13A, RM14A, and RM15A at sub-CMC concentrations.
compound,measurement,setting,value
benzalkonium chloride (C12-C14) [Sample D],Log Reduction,[1]; 0.10%,3.39
same,Log Reduction,[1]; 0.25%,3.47
same,Log Reduction,[1]; 0.50%,3.75
same,log reduction,[1]; 0.10%,4.47
same,log reduction,[1]; 0.25%,4.98
same,log reduction,[1]; 0.50%,5.05
same,Log Reduction,Candida albicans; 0.10%,3.65
same,Log Reduction,Candida albicans; 0.25%,3.75
same,Log Reduction,Candida albicans; 0.50%,4.51
same,log reduction,Candida albicans; 0.10%,4.84
same,log reduction,Candida albicans; 0.25%,5.55
same,log reduction,Candida albicans; 0.50%,5.77
same,Log Reduction,Staphylococcus aureus; 0.10%,3.59
same,Log Reduction,Staphylococcus aureus; 0.25%,3.97
same,Log Reduction,Staphylococcus aureus; 0.50%,4.19
same,log reduction,Staphylococcus aureus; 0.10%,5.37
same,log reduction,Staphylococcus aureus; 0.25%,5.67
same,log reduction,Staphylococcus aureus; 0.50%,5.97
same,Log Reduction,Salmonella abony; 0.10%,2.70
same,Log Reduction,Salmonella abony; 0.25%,2.86
same,Log Reduction,Salmonella abony; 0.50%,3.04
same,log reduction,Salmonella abony; 0.10%,4.14
same,log reduction,Salmonella abony; 0.25%,4.34
same,log reduction,Salmonella abony; 0.50%,4.55
same,Log Reduction,Listeria monocytogenes; 0.10%,3.49
same,Log Reduction,Listeria monocytogenes; 0.25%,3.77
same,Log Reduction,Listeria monocytogenes; 0.50%,3.91
same,log reduction,Listeria monocytogenes; 0.10%,5.61
same,log reduction,Listeria monocytogenes; 0.25%,5.97
same,log reduction,Listeria monocytogenes; 0.50%,6.02
same,Log Reduction,Escherichia coli; 0.10%,2.87
same,Log Reduction,Escherichia coli; 0.25%,3.17
same,Log Reduction,Escherichia coli; 0.50%,3.29
same,log reduction,Escherichia coli; 0.10%,4.62
same,log reduction,Escherichia coli; 0.25%,4.77
same,log reduction,Escherichia coli; 0.50%,5.07
same,"Log Reduction, Average, all microbes",[2]; 0.10%,3.28
same,"Log Reduction, Average, all microbes",[2]; 0.25%,3.50
same,"Log Reduction, Average, all microbes",[2]; 0.50%,3.78
same,"log reduction, Average, all microbes",[2]; 0.10%,4.84
same,"log reduction, Average, all microbes",[2]; 0.25%,5.21
same,"log reduction, Average, all microbes",[2]; 0.50%,5.41
benzalkonium chloride (C12-C16) [Sample C],Log Reduction,[1]; 0.10%,3.39
same,Log Reduction,[1]; 0.25%,3.50
same,Log Reduction,[1]; 0.50%,3.65
same,log reduction,[1]; 0.10%,4.79
same,log reduction,[1]; 0.25%,5.05
same,log reduction,[1]; 0.50%,5.05
same,Log Reduction,Candida albicans; 0.10%,4.18
same,Log Reduction,Candida albicans; 0.25%,4.35
same,Log Reduction,Candida albicans; 0.50%,4.56
same,log reduction,Candida albicans; 0.10%,5.95
same,log reduction,Candida albicans; 0.25%,6.35
same,log reduction,Candida albicans; 0.50%,6.43
same,Log Reduction,Staphylococcus aureus; 0.10%,3.89
same,Log Reduction,Staphylococcus aureus; 0.25%,4.19
same,Log Reduction,Staphylococcus aureus; 0.50%,4.37
same,log reduction,Staphylococcus aureus; 0.10%,5.86
same,log reduction,Staphylococcus aureus; 0.25%,6.07
same,log reduction,Staphylococcus aureus; 0.50%,5.05
same,Log Reduction,Salmonella abony; 0.10%,3.04
same,Log Reduction,Salmonella abony; 0.25%,3.34
same,Log Reduction,Salmonella abony; 0.50%,3.39
same,log reduction,Salmonella abony; 0.10%,4.44
same,log reduction,Salmonella abony; 0.25%,4.50
same,log reduction,Salmonella abony; 0.50%,4.50
same,Log Reduction,Listeria monocytogenes; 0.10%,3.72
same,Log Reduction,Listeria monocytogenes; 0.25%,3.87
same,Log Reduction,Listeria monocytogenes; 0.50%,3.99
same,log reduction,Listeria monocytogenes; 0.10%,5.60
same,log reduction,Listeria monocytogenes; 0.25%,5.99
same,log reduction,Listeria monocytogenes; 0.50%,6.02
same,Log Reduction,Escherichia coli; 0.10%,3.01
same,Log Reduction,Escherichia coli; 0.25%,3.29
same,Log Reduction,Escherichia coli; 0.50%,3.52
same,log reduction,Escherichia coli; 0.10%,4.59
same,log reduction,Escherichia coli; 0.25%,5.07
same,log reduction,Escherichia coli; 0.50%,5.07
same,"Log Reduction, Average, all microbes",[2]; 0.10%,3.54
same,"Log Reduction, Average, all microbes",[2]; 0.25%,3.76
same,"Log Reduction, Average, all microbes",[2]; 0.50%,3.91
same,"log reduction, Average, all microbes",[2]; 0.10%,5.21
same,"log reduction, Average, all microbes",[2]; 0.25%,5.51
same,"log reduction, Average, all microbes",[2]; 0.50%,5.35
"N=C(NCCCCCCNC(=N)NC(=N)Nc1ccc(Cl)cc1)NC(=N)Nc1ccc(Cl)cc1.O=C(O)C(O)C(O)C(O)C(O)C(O)CO.O=C(O)C(O)C(O)C(O)C(O)C(O)CO [RM15, chlorhexidine di-β81-glucoheptonate]",surface tension versus bubble age (rate and magnitude of reduction),[3],fall more rapidly and to a lower value than either the di-α-glucoheptonate or the comparative digluconate salt
